Usually clearance stands for the rate of elimination divided by the concentration. A word on the CC50: it is the concentration at which the toxic effect on the cells reaches its halfway point. What is called AUC is concentration integrated over time. Higher therefore signals more exposure. In general, half-life refers to the time in which the quantity being followed falls by half. High values mean slow decline, low ones rapid decline. As a reminder, the bioavailability is the share of a dose that reaches the circulation, judged against a reference dose that is usually intravenous. Lower therefore signals little systemic uptake. Usually solubility stands for the dissolved amount per volume that the medium holds. Read a high solubility as a readily soluble substance. What is called Cmax is the highest concentration seen after dosing.

Data set [1] can be described thus: Intrinsic clearance in human liver microsomes. The class given is ADME, Microsome. For orientation: Liver microsomes are vesicles of endoplasmic reticulum, rich in cytochrome P450 enzymes.
Data set [2] can be described thus: Plasma clearance in Sprague-Dawley rat at 1 mg/kg, iv measured upto 24 hrs by LC-MS/MS analysis. Format: ADME, organism-based.
In a further data set the test system is Huh-7. As to the kind of experiment: Cytotoxicity against human Huh-7 cells assessed as inhibition of cell viability incubated for 24 hrs by MTT assay. The class given is functional. (In general: Tetrazolium assays rely on reduction of a dye to a coloured formazan, in cell work by metabolically active cells.)
Data set [3] can be described thus: Microsomal stability in human liver microsomes assessed as intrinsic clearance. The class given is ADME, Microsome.
Data set [4] can be described thus: AUC in Sprague-Dawley rat at 10 mg/kg, po by LC-MS/MS analysis. The class given is ADME, organism-based. The following applies: in vivo.
Data set [5] can be described thus: AUC in Sprague-Dawley rat at 2 mg/kg, iv by LC-MS/MS analysis. The following applies: in vivo. Format: ADME, organism-based.
Data set [6] in a line: Half life in dog. The class given is ADME, Canis lupus familiaris. The following applies: in vivo.
A short description of data set [7]: Half life in rat. The class given is ADME. The following applies: in vivo.
A short description of data set [8]: Half life in mouse. The class given is ADME, organism-based. The following applies: in vivo.
A short description of data set [9]: Clearance in Sprague-Dawley rat at 0.5 mg/kg, iv by LC-MS/MS analysis. Format: ADME, organism-based. To be noted: in vivo.
Data set [10] in a line: Oral bioavailability in Sprague-Dawley rat at 5 mg/kg by LC-MS/MS analysis. The following applies: in vivo. The class given is ADME, organism-based.
Data set [11] can be described thus: AUC in Wistar rat. The class given is ADME. The following applies: in vivo.
Data set [12] is described as follows: Oral bioavailability in human. The class given is ADME, organism-based. To be noted: in vivo.
The next data set is described as follows: in vitro. The following applies: human, liver microsomes.
A short description of data set [13]: Solubility of the compound. The class given is physicochemical.
Data set [14] in a line: Cmax in human at 8 mg/kg, po. The following applies: in vivo. Format: ADME, organism-based.
The nature of data set [15]: Plasma protein binding in human. The class given is ADME, cell-free. To be noted: read-out: PPB.

The structures appear in SMILES notation. Starred links: 1 amine or outer side, 2 acyl side, 3 side chain; linkers in the order of their positions; H or OH if unused. Positions of bridges follow the written chain, without caps; N, C: chain ends. Non-standard residues stand in square brackets, D forms with d. Residues, ends and D or L forms follow the SMILES beside them. *: point of attachment. Phe(4-Cl) = N[C@@H](Cc1ccc(Cl)cc1)C(=O)O; 2Thi = N[C@@H](Cc1cccs1)C(=O)O; Agmatine = N=C(N)NCCCCN*; X1 = O=C(CCC[*:2])[*:1]; Mpa = O=C(O)CCS; NEt2 = CCN(CC)*

Regarding `COc1ccc2c(O[C@@H]3C[C@H]4C(=O)N[C@]5(C(=O)NS(=O)(=O)C6CC6)C[C@H]5/C=C\CCCCN(C)C(=O)[C@@H]4C3)cc(-c3ccccc3)nc2c1`, the CLH in data set [1] stood at 46 µL/min/mg. This compound also gave a clearance in data set [2] of 46.5 mL/min/kg. Moreover, in the data set with Huh-7, the CC50 is over 20 µM.

For `COc1ccc2c(O[C@@H]3C[C@H]4C(=O)N[C@]5(C(=O)NS(=O)(=O)C6CC6)C[C@H]5/C=C\CCCCN(C)C(=O)[C@@H]4C3)cc(-c3nc(C(C)C)cs3)nc2c1C`, in data set [3], the CLH was 6 µL/min/mg. For the same compound, the results for the AUC in data set [4] and in [5] were 2.79 µM·h and 5.21 µM·h, respectively.

As to `C/C1=C/C=C/[C@H](C)[C@H](O)[C@@H](C)[C@@H](O)[C@@H](C)[C@H](OC(=O)O)[C@H](C)[C@@H](OO)/C=C/O[C@@]2(C)Oc3c(C)c(O)c4c(O)c(c(/C=N/N5CCC(N(C)C6([C@@H]7CCN(c8cc9c(C%10CC%10)cc(C(=O)O)c(=O)n9cc8F)C7)CC6)CC5)c(O)c4c3C2=O)CC1=O`, the half-life is 96 min in [6], 24 min in data set [7] and 24 min in [8].

In data set [9], `CC(C)[C@@H]1NC(=O)[C@H](Cc2ccccc2)NC(=O)[C@H](Cc2ccc(O)cc2)NC(=O)CCSSC[C@@H](C(=O)N2CCC[C@H]2C(=O)N[C@H](CCCNC(=N)N)C(=O)NCC(N)=O)NC(=O)[C@H](CC(N)=O)NC1=O` ([Mpa]YFVNCP[dR]G-NH2; disulfide 1-6) showed a clearance of 9.6 mL/min/kg. The compound further came in with a bioavailability in data set [10] of 31%.

`CC(C)[C@@H]1NC(=O)[C@H](Cc2cccs2)NC(=O)[C@H](Cc2ccc(Cl)cc2)NC(=O)CCCSC[C@@H](C(=O)N2CCC[C@H]2C(=O)NCCCCNC(=N)N)NC(=O)[C@H](CC(N)=O)NC1=O` ([Phe(4-Cl)][2Thi]VNCP-Agmatine; linker N-5 via X1) gave a clearance in data set [9] of 14 mL/min/kg.

Regarding `CCN(CC)C(=O)[C@@H](CCCNC(=N)N)NC(=O)[C@@H]1CCCN1C(=O)[C@@H]1CSCCCC(=O)N[C@@H](Cc2ccc(Cl)cc2)C(=O)N[C@@H](Cc2cccs2)C(=O)N[C@@H](C(C)C)C(=O)N[C@@H](CC(N)=O)C(=O)N1` ([Phe(4-Cl)][2Thi]VNCP[dR]-NEt2; linker N-5 via X1), in [9], the clearance was 42 mL/min/kg.

Take `NC(=O)CC[C@@H]1NC(=O)[C@H](Cc2ccccc2)NC(=O)[C@H](Cc2ccc(O)cc2)NC(=O)CCSSC[C@@H](C(=O)N2CCC[C@H]2C(=O)N[C@H](CCCN=C(N)N)C(=O)NCC(N)=O)NC(=O)[C@H](CC(N)=O)NC1=O` [DESMOPRESSIN]: in [10], the bioavailability was found to be 41%.

Turning to `C[C@H]1Oc2cc(cnc2N)-c2c(nn(C)c2C#N)CN(C)C(=O)c2ccc(F)cc21` [LORLATINIB], the AUC in [11] came out at 3.48 µM·h.

Compound `C[C@@H]1CCC[C@H](n2cnc(-c3cc(Cl)ccc3-n3cc(Cl)nn3)cc2=O)c2cc(ccn2)-c2c(cnn2C(F)F)NC1=O` [MILVEXIAN] had a bioavailability in [12] of 18%.

For the compound `C1=C/COCc2cc(ccc2OCCN2CCCC2)Nc2nccc(n2)-c2cccc(c2)COC/1` [PACRITINIB], in “in vitro”, the half-life is over 60 min. Moreover, the solubility in [13] was over 150 µg/mL.

The compound `C[C@@H]1CN[C@@H](C2CC2)C(=O)N(C)[C@H](C)C(=O)N[C@H](Cc2ccc(F)cc2)C(=O)NCCCc2ccccc2O1` [ULIMORELIN] gave a Cmax in data set [14] of 1400 nM.

Consider `CN1C/C=C/CCOc2cccc(c2)-c2ccnc(n2)Nc2cccc(c2)C1` [ZOTIRACICLIB], for which, in [15], the fraction unbound came to 0.001.

For the origin of these results see ChEMBL document CHEMBL6078621, “Macrocyclic-based strategy in drug design: From lab to the clinic” (Eur J Med Chem, 2024).
